In PubChem BioAssay (NCI):
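Briefly, cells in 96-well plates were exposed to five compound concentrations for 48 h, and endpoints were estimated by linear interpolation. At the GI50, growth is halved. TGI is the concentration that stops growth completely.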

Assays:
Assay in all cases: DTP human tumour cell line panel, 48 h
[1] = tested on: KM12 colon
[2] = tested on: PC-3 prostate
[3] = tested on: 786-0 renal
[4] = tested on: SNB-75 CNS
[5] = tested on: MOLT-4 leukemia
[6] = tested on: NCI-H522 lung
[7] = tested on: NCI-H226 lung
[8] = tested on: HS 578T breast
[9] = tested on: U251 CNS
[10] = tested on: BT-549 breast

SMILES: Cc1ccc(NC(=O)c2sc3nc4c(cc3c2N)C(=O)CCC4)cc1C
- GI50 [1]: 0.486 µM
- TGI [1]: > 100 µM
- GI50 [2]: 0.607 µM
- TGI [2]: > 100 µM
- GI50 [3]: 0.699 µM
- TGI [3]: > 100 µM
- GI50 [4]: 0.313 µM
- TGI [4]: > 100 µM
- GI50 [5]: 6.41 µM
- TGI [5]: 76.2 µM
- GI50 [6]: 0.276 µM
- TGI [6]: 4.88 µM
- GI50 [7]: 27.3 µM
- TGI [7]: > 100 µM
- GI50 [8]: 0.442 µM
- TGI [8]: > 100 µM
- GI50 [9]: 0.765 µM
- TGI [9]: > 56.7 µM

SMILES: NNC(=O)N/N=C1\C(=O)N(c2ccc(Cl)c(Cl)c2)C(=O)C(=O)C1c1nc2ccccc2s1 (stereo unspecified)
- TGI [1]: > 100 µM
- TGI [3]: > 100 µM
- TGI [4]: > 100 µM
- TGI [5]: > 100 µM
- TGI [6]: > 100 µM
- TGI [7]: > 100 µM
- TGI [9]: > 100 µM

SMILES: Cc1ccc(NC(=O)/C(Cl)=C(/Cl)C(=O)O)cc1
- TGI [1]: 34.6 µM
- TGI [3]: 32.6 µM
- TGI [4]: 34.1 µM
- TGI [5]: 43.5 µM
- TGI [6]: 6.11 µM
- TGI [7]: > 100 µM
- TGI [9]: 30.9 µM

SMILES: CC(=O)[CH-]C(=O)c1ccccc1.CC(=O)[CH-]C(=O)c1ccccc1.C[C@]12CCC(=O)C=C1CC[C@@H]1C2CC[C@@]2(C)C1CC[C@@H]2[O-].C[C@]12CCC(=O)C=C1CC[C@@H]1C2CC[C@@]2(C)C1CC[C@@H]2[O-].Cl.[Ti+4] (stereo partly specified)
- GI50 [1]: 20.3 µM
- TGI [1]: 66.2 µM
- GI50 [3]: 13.5 µM
- TGI [3]: 26.3 µM
- GI50 [5]: 35.3 µM
- TGI [5]: > 100 µM
- GI50 [6]: 13.6 µM
- TGI [6]: 34.8 µM
- GI50 [7]: 12.9 µM
- TGI [7]: 35.2 µM

SMILES: CC(C)NC(=O)CCN(C(=O)O)S(=O)(=O)c1ccc(NC(=O)c2ccccc2)cc1
- TGI [1]: > 100 µM
- TGI [3]: > 100 µM
- TGI [4]: > 100 µM
- TGI [5]: > 57.9 µM
- TGI [6]: > 100 µM
- TGI [7]: > 100 µM
- TGI [9]: 32.1 µM

SMILES: N/N=c1\c2ccccc2c2cc3c(cc12)/c(=N/N)c1ccccc13
- TGI [1]: > 100 µM
- TGI [3]: > 100 µM
- TGI [4]: > 100 µM
- TGI [5]: > 100 µM
- TGI [6]: > 100 µM
- TGI [7]: > 100 µM
- TGI [9]: > 100 µM

SMILES: CC#CC1C2CCCC1(CSc1ccccc1)NC(=O)O2 (stereo unspecified)
- TGI [1]: > 100 µM
- TGI [3]: > 100 µM
- TGI [4]: > 100 µM
- TGI [5]: > 100 µM
- TGI [6]: > 100 µM
- TGI [7]: > 100 µM
- TGI [9]: > 100 µM

SMILES: COc1ccc(/C=C/C(=O)c2ccc(OC)c(OC)c2)cc1O
- GI50 [1]: 3.57 µM
- TGI [1]: 13.3 µM
- GI50 [2]: 12.8 µM
- TGI [2]: 39.6 µM
- GI50 [3]: 14.2 µM
- TGI [3]: 65.8 µM
- GI50 [5]: 4.32 µM
- TGI [5]: 26.1 µM
- GI50 [6]: 3.42 µM
- TGI [6]: 12.4 µM
- GI50 [7]: 11.1 µM
- TGI [7]: 25.4 µM
- GI50 [8]: 11 µM
- TGI [8]: 90.9 µM
- GI50 [10]: 5.5 µM
- TGI [10]: 17.4 µM
- GI50 [9]: 3.59 µM
- TGI [9]: 14.6 µM

SMILES: Clc1ccc(-c2c(C3=NCCCN3)nnn2-c2ccccc2)cc1
- TGI [1]: > 100 µM
- TGI [3]: > 100 µM
- TGI [4]: > 100 µM
- TGI [5]: > 100 µM
- TGI [6]: > 100 µM
- TGI [7]: > 100 µM
- TGI [9]: > 100 µM

SMILES: Clc1ccc(-c2cc(-c3ccccc3)nc(NCCNc3ccnc4cc(Cl)ccc34)n2)cc1
- GI50 [1]: 1.81 µM
- TGI [1]: 3.46 µM
- GI50 [3]: 1.67 µM
- TGI [3]: 3.41 µM
- GI50 [4]: 1.58 µM
- TGI [4]: 3.08 µM
- GI50 [5]: 1.89 µM
- TGI [5]: 4.19 µM
- GI50 [6]: 1.81 µM
- TGI [6]: 3.78 µM
- GI50 [7]: 1.57 µM
- TGI [7]: 3.68 µM
- GI50 [8]: 1.88 µM
- TGI [8]: 4.19 µM
- GI50 [10]: 1.68 µM
- TGI [10]: 3.25 µM
- GI50 [9]: 1.72 µM
- TGI [9]: 3.37 µM
